A compilation of properties of binary mixtures (doi:10.1021/acs.iecr.1c02970)

Experiment: xn = mol fraction of the nth substance listed
Conditions: 100 kPa

CC[n+]1ccn(C)c1.CS(=O)(=O)[O-] + O
Conditions	electrical conductivity [S/m]	speed of sound [m/s]	viscosity [mPa·s]
293.15 K, x1 = 0.002	0.693	–	–
293.15 K, x1 = 0.0177	–	–	1.439
293.15 K, x1 = 0.0181	–	1596.2	–
293.15 K, x1 = 0.028	4.07	–	–
293.15 K, x1 = 0.0357	–	–	1.98
293.15 K, x1 = 0.0375	–	1686.1	–
293.15 K, x1 = 0.0489	4.55	–	–
293.15 K, x1 = 0.07	4.39	–	–
293.15 K, x1 = 0.0749	–	1801.7	–
293.15 K, x1 = 0.0945	–	1837.1	–
293.15 K, x1 = 0.1089	–	–	5.395
293.15 K, x1 = 0.1122	3.62	–	–
293.15 K, x1 = 0.113	–	1857.6	–
293.15 K, x1 = 0.1833	–	1882.3	–
293.15 K, x1 = 0.1848	–	–	10.55
293.15 K, x1 = 0.2034	2.29	–	–
293.15 K, x1 = 0.2741	–	1871.1	–
293.15 K, x1 = 0.3671	–	1850.8	–
293.15 K, x1 = 0.3752	1.19	–	–
293.15 K, x1 = 0.4263	–	–	34.52
293.15 K, x1 = 0.6064	–	1809.5	–
293.15 K, x1 = 0.6951	–	1800.2	–
293.15 K, x1 = 0.7708	–	1793	–
293.15 K, x1 = 0.9157	–	1780.8	–
293.15 K, x1 = 0.9339	0.201	–	–
293.15 K, x1 = 0.9357	–	–	214.4
293.15 K, x2 = 0.0082	–	1779.6	–
298.15 K, x1 = 0.0375	–	1686.1	–
298.15 K, x1 = 0.056	–	1749	–
298.15 K, x1 = 0.0749	–	1794.6	–
298.15 K, x1 = 0.0945	–	1828.1	–
298.15 K, x1 = 0.113	–	1847.4	–
298.15 K, x1 = 0.2741	–	1859.1	–
298.15 K, x1 = 0.3671	–	1839	–
298.15 K, x1 = 0.489	–	1815.1	–
298.15 K, x1 = 0.6064	–	1797	–
298.15 K, x1 = 0.6951	–	1787.9	–
298.15 K, x1 = 0.9157	–	1767.6	–
298.15 K, x2 = 0.0082	–	1766.9	–
303.15 K, x1 = 0.002	0.852	–	–
303.15 K, x1 = 0.0165	4.03	–	–
303.15 K, x1 = 0.0181	–	1607.4	–
303.15 K, x1 = 0.028	5.09	–	–
303.15 K, x1 = 0.0357	–	–	1.541
303.15 K, x1 = 0.0375	–	1685.5	–
303.15 K, x1 = 0.0489	5.75	–	–
303.15 K, x1 = 0.0674	–	–	2.309
303.15 K, x1 = 0.07	5.61	–	–
303.15 K, x1 = 0.0749	–	1787.3	–
303.15 K, x1 = 0.0945	–	1818.7	–
303.15 K, x1 = 0.1089	–	–	3.994
303.15 K, x1 = 0.113	–	1837.3	–
303.15 K, x1 = 0.1833	–	1859.5	–
303.15 K, x1 = 0.1848	–	–	7.58
303.15 K, x1 = 0.2034	3.13	–	–
303.15 K, x1 = 0.2741	–	1847.2	–
303.15 K, x1 = 0.3671	–	1827.1	–
303.15 K, x1 = 0.3752	1.67	–	–
303.15 K, x1 = 0.4263	–	–	23.25
303.15 K, x1 = 0.489	–	1802.7	–
303.15 K, x1 = 0.6951	–	1775.8	–
303.15 K, x1 = 0.7708	–	1767.9	–
303.15 K, x1 = 0.9157	–	1755.3	–
303.15 K, x1 = 0.9339	0.351	–	–
303.15 K, x2 = 0.0082	–	1754.4	–
308.15 K, x1 = 0.0181	–	1611.3	–
308.15 K, x1 = 0.0375	–	1684.1	–
308.15 K, x1 = 0.056	–	1739.2	–
308.15 K, x1 = 0.0749	–	1779.7	–
308.15 K, x1 = 0.113	–	1827	–
308.15 K, x1 = 0.1833	–	1848.4	–
308.15 K, x1 = 0.2741	–	1835.3	–
308.15 K, x1 = 0.3671	–	1815.2	–
308.15 K, x1 = 0.489	–	1790.4	–
308.15 K, x1 = 0.6951	–	1763.8	–
308.15 K, x1 = 0.7708	–	1755.8	–
308.15 K, x1 = 0.9157	–	1743.1	–
308.15 K, x2 = 0.0082	–	1742.1	–
313.15 K, x1 = 0.002	1.02	–	–
313.15 K, x1 = 0.0165	4.87	–	–
313.15 K, x1 = 0.0177	–	–	0.917
313.15 K, x1 = 0.0181	–	1614.1	–
313.15 K, x1 = 0.028	6.18	–	–
313.15 K, x1 = 0.0375	–	1682.2	–
313.15 K, x1 = 0.0489	7.04	–	–
313.15 K, x1 = 0.056	–	1733.8	–
313.15 K, x1 = 0.0674	–	–	1.819
313.15 K, x1 = 0.07	6.95	–	–
313.15 K, x1 = 0.0749	–	1771.7	–
313.15 K, x1 = 0.0945	–	1799.6	–
313.15 K, x1 = 0.1122	6	–	–
313.15 K, x1 = 0.113	–	1816.6	–
313.15 K, x1 = 0.1833	–	1836.9	–
313.15 K, x1 = 0.1848	–	–	5.649
313.15 K, x1 = 0.2034	4.08	–	–
313.15 K, x1 = 0.2741	–	1823.4	–
313.15 K, x1 = 0.3671	–	1803.3	–
313.15 K, x1 = 0.4263	–	–	16.5
313.15 K, x1 = 0.489	–	1778.5	–
313.15 K, x1 = 0.6064	–	1760.4	–
313.15 K, x1 = 0.6951	–	1751.7	–
313.15 K, x1 = 0.7708	–	1743.9	–
313.15 K, x1 = 0.9339	0.558	–	–
313.15 K, x1 = 0.9357	–	–	68.4
313.15 K, x2 = 0.0082	–	1730	–
318.15 K, x1 = 0.0181	–	1615.9	–
318.15 K, x1 = 0.056	–	1727.8	–
318.15 K, x1 = 0.0749	–	1763.5	–
318.15 K, x1 = 0.113	–	1806.2	–
318.15 K, x1 = 0.2741	–	1811.2	–
318.15 K, x1 = 0.3671	–	1791.3	–
318.15 K, x1 = 0.489	–	1766.7	–
318.15 K, x1 = 0.6064	–	1748.6	–
318.15 K, x1 = 0.7708	–	1731.9	–
318.15 K, x1 = 0.9157	–	1719.1	–
318.15 K, x2 = 0.0082	–	1717.9	–
323.15 K, x1 = 0.002	1.2	–	–
323.15 K, x1 = 0.0165	5.73	–	–
323.15 K, x1 = 0.0181	–	1616.5	–
323.15 K, x1 = 0.028	7.33	–	–
323.15 K, x1 = 0.056	–	1721.3	–
323.15 K, x1 = 0.0674	–	–	1.468
323.15 K, x1 = 0.07	8.43	–	–
323.15 K, x1 = 0.0749	–	1754.8	–
323.15 K, x1 = 0.0945	–	1779.5	–
323.15 K, x1 = 0.1089	–	–	2.428
323.15 K, x1 = 0.1122	7.28	–	–
323.15 K, x1 = 0.1848	–	–	4.37
323.15 K, x1 = 0.2741	–	1799	–
323.15 K, x1 = 0.489	–	1754.8	–
323.15 K, x1 = 0.6951	–	1727.9	–
323.15 K, x1 = 0.7708	–	1720	–
323.15 K, x1 = 0.9157	–	1707.2	–
323.15 K, x1 = 0.9357	–	–	44.06
323.15 K, x2 = 0.0082	–	1705.9	–
328.15 K, x1 = 0.0181	–	1616.2	–
328.15 K, x1 = 0.0375	–	1672.1	–
328.15 K, x1 = 0.056	–	1714.4	–
328.15 K, x1 = 0.0749	–	1745.8	–
328.15 K, x1 = 0.0945	–	1769	–
328.15 K, x1 = 0.113	–	1783.9	–
328.15 K, x1 = 0.1833	–	1800.7	–
328.15 K, x1 = 0.2741	–	1786.7	–
328.15 K, x1 = 0.489	–	1743	–
328.15 K, x1 = 0.6064	–	1725	–
328.15 K, x1 = 0.6951	–	1716.1	–
328.15 K, x1 = 0.7708	–	1707.9	–
328.15 K, x1 = 0.9157	–	1695.4	–
333.15 K, x1 = 0.002	1.38	–	–
333.15 K, x1 = 0.0165	6.66	–	–
333.15 K, x1 = 0.0177	–	–	0.642
333.15 K, x1 = 0.0181	–	1615.2	–
333.15 K, x1 = 0.028	8.53	–	–
333.15 K, x1 = 0.0357	–	–	0.848
333.15 K, x1 = 0.0375	–	1667.4	–
333.15 K, x1 = 0.0489	9.85	–	–
333.15 K, x1 = 0.0674	–	–	1.214
333.15 K, x1 = 0.07	9.96	–	–
333.15 K, x1 = 0.0749	–	1736.4	–
333.15 K, x1 = 0.0945	–	1758.3	–
333.15 K, x1 = 0.1089	–	–	1.965
333.15 K, x1 = 0.1122	8.86	–	–
333.15 K, x1 = 0.113	–	1772.4	–
333.15 K, x1 = 0.1848	–	–	3.473
333.15 K, x1 = 0.2034	6.33	–	–
333.15 K, x1 = 0.2741	–	1774.2	–
333.15 K, x1 = 0.3752	3.67	–	–
333.15 K, x1 = 0.4263	–	–	9.38
333.15 K, x1 = 0.6064	–	1713.3	–
333.15 K, x1 = 0.6951	–	1704.2	–
333.15 K, x1 = 0.7708	–	1696.1	–
333.15 K, x1 = 0.9157	–	1683.7	–
333.15 K, x1 = 0.9339	1.16	–	–
333.15 K, x1 = 0.9357	–	–	29.98
333.15 K, x2 = 0.0082	–	1682.3	–
343.15 K, x1 = 0.002	1.59	–	–
343.15 K, x1 = 0.0177	–	–	0.551
343.15 K, x1 = 0.0181	–	1610.8	–
343.15 K, x1 = 0.028	9.78	–	–
343.15 K, x1 = 0.0357	–	–	0.735
343.15 K, x1 = 0.0375	–	1656.3	–
343.15 K, x1 = 0.056	–	1690.9	–
343.15 K, x1 = 0.0674	–	–	1.026
343.15 K, x1 = 0.07	11.6	–	–
343.15 K, x1 = 0.0749	–	1716.8	–
343.15 K, x1 = 0.0945	–	1736.2	–
343.15 K, x1 = 0.1089	–	–	1.629
343.15 K, x1 = 0.1122	10.4	–	–
343.15 K, x1 = 0.113	–	1748.7	–
343.15 K, x1 = 0.1833	–	1762.7	–
343.15 K, x1 = 0.1848	–	–	2.831
343.15 K, x1 = 0.2034	7.58	–	–
343.15 K, x1 = 0.2741	–	1749.3	–
343.15 K, x1 = 0.3671	–	1730.3	–
343.15 K, x1 = 0.3752	4.5	–	–
343.15 K, x1 = 0.489	–	1707.6	–
343.15 K, x1 = 0.6951	–	1680.7	–
343.15 K, x1 = 0.9157	–	1660.7	–
343.15 K, x1 = 0.9339	1.55	–	–
343.15 K, x1 = 0.9357	–	–	21.61
343.15 K, x2 = 0.0082	–	1659	–
353.15 K, x1 = 0.002	1.81	–	–
353.15 K, x1 = 0.0177	–	–	0.475
353.15 K, x1 = 0.028	11.1	–	–
353.15 K, x1 = 0.0357	–	–	0.625
353.15 K, x1 = 0.07	13.2	–	–
353.15 K, x1 = 0.1089	–	–	1.37
353.15 K, x1 = 0.1122	12.1	–	–
353.15 K, x1 = 0.2034	8.9	–	–
353.15 K, x1 = 0.9357	–	–	16.3
